These results are taken from US8115059B1, “Gene expression modulation system for use in plants and method for modulating gene expression in plants” (University of Kentucky Research Foundation, priority 2005, dated 2012).

Experiment [1] deals with ms45 mutant. The following applies: transgenic ms45 maize with Ms45 under EcR-based switch; cited from earlier work.
Experiment [2] addresses GAL4 DBD:CfEcR fusion protein (Choristoneura fumiferana). Nature of the experiment: cell-based or functional assay.

`COc1cccc(C(=O)NN(C(=O)c2cc(C)cc(C)c2)C(C)(C)C)c1C` [methoxyfenozide]: the “restoration of male fertility” value in experiment [1] was “able to restore male fertility”. The molecule “VP16 AD:LmRXR triple mutant A62S:T81H:V123I (Lm-7) fusion protein (receptor)” returned a methoxyfenozide concentration at maximum luciferase activity, two-hybrid gene switch, tobacco protoplasts (nM methoxyfenozide) in experiment [2] of 80.
